Key:
TOV-21G cells = experiment: Cell proliferation assay (Celltiter-Glo), TOV-21G; assay type: cell-based; conditions: Homo sapiens, TOV21G, 72 h; TOV-21G (normal expression of CCNE1), three days
Procedure: (§1) Celltiter-Glo Luminescent Cell Viability Assay (Promega, Madison, WI, USA) was used to detect cell viability according to the manufacturer’s instructions. This assay is a homogeneous method of determining the number of viable cells in a culture based on quantitation of the ATP present, an indicator of metabolically active cells. Cells were digested and paved in white-bottomed 96-well plates with 1000 cells/100 μL cell suspension solution; then, different concentrations of compounds were added the next day. TOV-21G and HCT116 were placed in the incubator for three days and OVCAR3 for five days. Then, 100 μL Celltiter-Glo solution was added and mixed for 5 min; the luminous intensity of each well was detected with a spectrophotometer (BioTek, Winooski, VT, USA). The experiment was repeated three times to calculate the cell survival rate.

HCT116 cells [1] = experiment: Cell proliferation assay (Celltiter-Glo), HCT116; assay type: cell-based; conditions: Homo sapiens, HCT-116, 72 h; HCT116 (overexpression of CCNE1), three days
Procedure: as §1

OVCAR3 cells = experiment: Cell proliferation assay (Celltiter-Glo), OVCAR3; assay type: cell-based; conditions: Homo sapiens, OVCAR-3, 120 h; OVCAR3 (overexpression of CCNE1), five days
Procedure: as §1

[2] = system: MDM2 mRNA in OVCAR3 cells; experiment: q-PCR of MDM2 mRNA after III-13 treatment; assay type: cell-based, human; conditions: q-PCR after 12 h of treatment
Source text: RNA was reverse transcribed with the HiScript Q RT SuperMix for qPCR (Vazyme, Nanjing, China), and quantitative real-time PCR (qPCR) was applied using SYBR Green qPCR Mix (SparkJade, Jinan, China) on the ABI Prism 7500 Fast Real-Time PCR System (Applied Biosystems, Carlsbad, CA, USA) following the manufacturer’s protocols. The comparative CT method (ΔΔCt) was used to calculate gene expression differences, with GAPDH as the reference gene. The following primers were used (human): • ZNF311 (sense, 5′-3′): […] • ZNF311 (antisense, 5′-3′): […] • TBX15 (sense, 5′-3′): […] • TBX15 ([…], 5′-3′): […] • ZNF784 (sense, 5′-3′): […] • ZNF784 (antisense, 5′-3′): […] • SIX3 (sense, 5′-3′): […] • SIX3 (antisense, 5′-3′): […] • KLLN (sense, 5′-3′): […] • KLLN (antisense, 5′-3′): […] • P2RY1 (sense, 5′-3′): […] • P2RY1 (antisense, 5′-3′): […] • MSH4 (sense, 5′-3′): […] • MSH4 (antisense, 5′-3′): […] • STAR (sense, 5′-3′): […] • STAR (antisense, 5′-3′): […] • SUMO4 (sense, 5′-3′): […] • SUMO4 (antisense, 5′-3′): […] • ZC3H12D (sense, 5′-3′): […] • ZC3H12D (antisense, 5′-3′): […] • CCNE1 (sense, 5′-3′): […] • CCNE1 (antisense, 5′-3′): […] • MDM2 (sense, 5′-3′): […] • MDM2 (antisense, 5′-3′): […] • GAPDH (sense, 5′-3′): […] • GAPDH (antisense, 5′-3′): […]

HCT116 cells [3] = experiment: Colony formation, HCT116; assay type: cell-based; conditions: 14 days
Procedure: Cells were inoculated in six-well plates at 1000 cells per well, and III-13 was added in a dose-dependent manner after 24 h. Cells were stained with Crystal Violet Staining Solution (Beyotime, Shanghai, China) at 14 days after incubation, and the cell colonies were counted using Image J.

[4] = Pharmacokinetics study in rats; assay type: in vivo
Procedure: The pharmacokinetics study was created as described. […] Approximately 200 μL of whole blood was collected into heparin-coated tubes at 0.083, 0.25, 0.5, 1, 2, 3, 4, 6, 8, 12, and 24 h after dosing. Plasma was collected immediately by centrifugation (8000× g, 5 min, room temperature). Blood was placed in a heparinized Eppendorf™ tube. Plasma was centrifuged, and the concentration of compounds in the sample was determined by LCMS/MS after pre-treatment. Drug-concentration data were processed in a […] using WinNonlin™ 6.3 (Pharsight, Mountain View, CA, USA).

[5] = Liver microsomal stability, mouse; assay type: in vitro ADME; conditions: Mice liver microsomes
Procedure: Compounds were incubated with mouse, rat, and human liver microsomal samples and NADPH at 37 °C for 5, 10, 20, 30, or 60 min. The reaction was terminated with a cold acetonitrile solution containing tolbutamide. Compound retention was determined by LC-MS/MS. The retention times, chromatographic acquisition, and chromatographic integration of compounds and positive control substances were analyzed using Analyst (AB Sciex, Framingham, MA, USA).

hERG = molecular target: T1, hERG (Homo sapiens, UniProt Q12809); experiment: hERG assay in CHO cells stably expressing hERG; assay type: cell-based; conditions: maximum concentration of 30 μM
T1 construct: expressed in transfected cells; host or cells: CHO cells
Procedure: This test method is a reference to a previous study. CHO cells stably expressing hERG were cultured with medium containing 10% FBS, penicillin (100 U/mL), and streptomycin (100 μg/mL) in DMEM/F12 in an incubator at 37 °C, 5% CO2. Cultures were passaged in a 1:5 ratio every 48 h. The medium consisted of 90% F12, 10% FBS, G418 (100 μg/mL), and hygromycin B (100 μg/mL). On the day of the assay, the current should reach a steady state for at least 1 min prior to administration of the compounds, and the test current was measured again after 5 min of stimulation with different concentrations of the drug.

[6] = both sexes, rat, plasma, iv, 2 mg/kg i.v.
[7] = both sexes, rat, plasma, iv, 2 mg/kg, 2 mg/kg i.v.
[8] = both sexes, rat, plasma, po, 5 mg/kg i.g.
[9] = both sexes, rat, plasma, po, 5 mg/kg, 5 mg/kg i.g.

T1 sequence (Q12809 whole entry): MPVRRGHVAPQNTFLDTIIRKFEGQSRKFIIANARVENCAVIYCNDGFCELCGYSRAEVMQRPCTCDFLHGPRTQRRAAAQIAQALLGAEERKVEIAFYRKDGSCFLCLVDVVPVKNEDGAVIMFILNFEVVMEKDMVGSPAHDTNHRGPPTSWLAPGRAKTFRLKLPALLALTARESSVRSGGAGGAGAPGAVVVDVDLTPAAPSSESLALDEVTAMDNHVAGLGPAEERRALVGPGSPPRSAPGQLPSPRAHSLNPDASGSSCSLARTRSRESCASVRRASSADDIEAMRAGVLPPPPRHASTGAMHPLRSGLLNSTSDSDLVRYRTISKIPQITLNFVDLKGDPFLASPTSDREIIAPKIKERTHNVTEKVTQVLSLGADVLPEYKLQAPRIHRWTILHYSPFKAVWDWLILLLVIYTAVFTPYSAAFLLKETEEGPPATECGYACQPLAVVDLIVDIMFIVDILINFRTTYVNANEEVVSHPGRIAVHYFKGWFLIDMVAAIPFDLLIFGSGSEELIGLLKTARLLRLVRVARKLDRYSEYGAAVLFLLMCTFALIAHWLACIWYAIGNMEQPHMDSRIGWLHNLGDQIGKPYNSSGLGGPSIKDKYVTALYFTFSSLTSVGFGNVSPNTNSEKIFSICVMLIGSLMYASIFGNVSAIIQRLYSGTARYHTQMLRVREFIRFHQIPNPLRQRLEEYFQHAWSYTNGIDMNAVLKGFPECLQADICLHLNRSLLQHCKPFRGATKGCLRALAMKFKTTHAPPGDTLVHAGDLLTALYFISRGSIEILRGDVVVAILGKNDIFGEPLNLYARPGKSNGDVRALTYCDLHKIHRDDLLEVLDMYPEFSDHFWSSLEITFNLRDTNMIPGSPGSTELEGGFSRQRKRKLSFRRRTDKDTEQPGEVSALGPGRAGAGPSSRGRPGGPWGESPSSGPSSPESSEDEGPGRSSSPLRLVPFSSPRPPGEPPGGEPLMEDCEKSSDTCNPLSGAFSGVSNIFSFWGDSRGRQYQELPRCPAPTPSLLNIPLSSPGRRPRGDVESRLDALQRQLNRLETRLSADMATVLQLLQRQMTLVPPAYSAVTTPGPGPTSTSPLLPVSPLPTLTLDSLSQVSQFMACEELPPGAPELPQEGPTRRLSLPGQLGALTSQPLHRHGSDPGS

## CC1(C)CCN1C(=O)O[C@@H]1CC[C@H](c2cc(NC(=O)Cc3ccc(N4CCCC4=O)cc3)n[nH]2)C1 [III-13]
TOV-21G cells
  IC50: 164 nM
HCT116 cells [1]
  IC50: 60.9 nM
  IC90: 235 nM
OVCAR3 cells
  IC50: 115 nM
  IC90: 398 nM
[2]
  MDM2 mRNA expression: significantly inhibited
HCT116 cells [3]
  number of colonies: significant reduction
[4]; 2 mg/kg i.v.
  CL/F: 41.2 mL/min/kg
  Vz/F: 1.3 ± 0.374 L/kg
[4]; 2 mg/kg i.v., 2 mg/kg
  AUClast: 2.052 ± 0.337 µM·h
  T1/2: 22.2 ± 7.8 min
[4]; 5 mg/kg i.g., 5 mg/kg
  AUClast: 0.293 ± 0.0646 µM·h
  T1/2: 50.4 ± 7.2 min
[4]; [6]
  Cmax: 5500 ± 2310 nM
  MRT last: 27 ± 15 min
[4]; [7]
  AUC(0-t): ~2.05 µM·h
  half-life: ~22.2 min
[4]; both sexes, rat, plasma, oral, 5 mg/kg, 5 mg/kg i.g. vs 2 mg/kg i.v., read-out: F (oral bioavailability)
  bioavailability: ~3.57%
[4]; [8]
  Cmax: 389 ± 87.9 nM
  MRT last: 51 ± 6 min
[4]; [9]
  AUC(0-t): ~0.293 µM·h
  Tmax: ~15 min
  half-life: ~50.4 min
[5]; 60 min
  Remaining (T = 60 min): 1.29%
[5]; mouse
  CLint scaled: 840 mL/min/kg
[5]; mouse, NADPH, 37 °C
  half-life: 6.53 min
hERG
  cardiotoxicity in hERG assay: no cardiotoxicity

Reference: publication PMC10856454, “Discovery of Novel Antitumor Small-Molecule Agent with Dual Action of CDK2/p-RB and MDM2/p53” (Molecules, 2024)
